Measurements: patent US4820734A, “Phenethylamine derivatives” (Hoffmann-La Roche Inc., priority 1983, dated 1989)
Where a name gives a salt, the structure may show the parent alone.

What was measured:
[1] = Writhing Test on the mouse (analgesic activity); format: in vivo; settings: po
Excerpt: (§1) As already mentioned earlier, the compounds of formula I and their pharmaceutically acceptable acid addition salts have valuable pharmacodynamic properties. In particular, they have interesting analgesic, anti-depressant and acute inflammation-inhibiting properties. […] In the following Table there are given the results determined in these tests for some representative members of the class of compound defined by general formula I. Moreover, the Table contains data concerning the acute toxicity of these compounds (LD50 after single oral administration to mice).

serotonin-uptake = experiment: Serotonin-uptake Test (antidepressant activity; M. J. Kuhar et al.); format: biochemical
Excerpt: as §1

[2] = Acute toxicity, LD50 after single oral administration to mice; settings: mouse, in vivo
Excerpt: as §1

Structure (SMILES) | ED50 [1] [mg/kg] | IC50 (serotonin-uptake) [nM] | LD50 [2] [mg/kg]
CN(C)C[C@@H](c1ccc(Cl)c(Cl)c1)[C@@H]1CCCC[C@@H]1O (relative stereo) [rac-(1S*)-cis-2-/(R*)-3,4-dichloro-α-[(dimethylamino)methyl]benzyl/cyclohexanol hydrochloride] | 9.7 | 21 | 62.6 to 125
CN(C)C[C@@H](c1ccc(Cl)cc1)[C@@H]1CCCC[C@@H]1O (relative stereo) [rac-(1S*)-cis-2-/(R*)-4-chloro-α-[(dimethylamino)methyl]benzyl/cyclohexanol hydrochloride] | 18 | 88 | 312 to 625
COc1ccc([C@H](CN(C)C)[C@@H]2CCCC[C@@H]2O)cc1 (relative stereo) [rac-(1S*)-cis-2-/(R*)-4-methoxy-α-[(dimethylamino)methyl]benzyl/cyclohexanol hydrochloride] | 23 | 120 | 250 to 500
COc1ccc([C@H](CN(C)C)[C@@H]2CCCC[C@@H]2O)cc1OC (relative stereo) [rac-(1S*)-cis-2-/(R*)-α-[(dimethylamino)methyl]-3,4-dimethoxybenzyl/cyclohexanol hydrochloride] | 10 | 100 | 500 to 1000
CN(C)C[C@@H](c1ccc(O)cc1)[C@@H]1CCCC[C@@H]1O (relative stereo) [rac-(1S*)-cis-2-/(R*)-α-[(dimethylamino)methyl]-4-hydroxybenzyl/cyclohexanol] | 8.4 | 180 | 500 to 1000
CN(C)C[C@@H](c1ccc(Cl)cc1)[C@@H]1CCCCC1=O (relative stereo) [rac-(2S*)-2-/(R*)-4-chloro-α-[(dimethylamino)methyl]benzyl/cyclohexanone hydrochloride] | 22 | 240 | 156 to 312
CN(C)C[C@@H](c1ccc(Cl)cc1)[C@@H]1CCCC[C@@H]1O [(+)-(1S)-cis-2-/(R)-4-chloro-α-[(dimethylamino)methyl]benzyl/cyclohexanol hydrochloride] | 14 | 110 | 125 to 250
CN(C)C[C@H](c1ccc(Cl)cc1)[C@H]1CCCC[C@H]1O [(-)-(1R)-cis-2-/(S)-4-chloro-α-[(dimethylamino)methyl]benzyl/cyclohexanol hydrochloride] | 19 | 55 | 125 to 250
